From ChEMBL document CHEMBL3608224, “Total synthesis of cordatanine, structural reassignment of drymaritin, and anti-inflammatory activity of synthetic precursors” (Bioorg Med Chem Lett, 2015)
Values after ≈ are worked out from the molar mass of the structure shown.

How the values were obtained:
[1] = Antiinflammatory activity in FMLP/CB-induced human neutrophils assessed as inhibition of superoxide anion generation; format: functional, cell-based; details: Neutrophil
[2] = Antiinflammatory activity in FMLP/CB-induced human neutrophils assessed as inhibition of superoxide anion generation relative to control; format: functional, Neutrophil
[3] = Antiinflammatory activity in FMLP/CB-induced human neutrophils assessed as inhibition of elastase release; format: functional, cell-based; details: Neutrophil
[4] = Antiinflammatory activity in FMLP/CB-induced human neutrophils assessed as inhibition of elastase release relative to control; format: functional, Neutrophil

IC50 [1] [µg/mL]	IC50 [3] [µg/mL]	SMILES	inhibition (INH) [2] [%]	inhibition (INH) [4] [%]
> 10	> 10	CCOC(=O)CC(=O)c1nccc2c1[nH]c1ccccc12	10.48	3.06
> 10	> 10	COc1cc(=O)n2c3ccccc3c3ccnc1c32	29.5	8.2

SMILES	IC50 [1] [µg/mL]	IC50 [3] [µg/mL]	inhibition (INH) [2] [%]	inhibition (INH) [4] [%]
CCOC(=O)c1nccc2c1[nH]c1ccccc12	4.87 (≈ 20.3 µM)	6.29 (≈ 26.2 µM)	93.92	70.75
